Where two headings read alike, the source gives them in different places.
Assays:
mGluR2-N735D = target: T1, mGluR2-N735D (Rattus norvegicus, UniProt P31421, N735D); test: GIRK activation assay, whole cell patch clamp, mGluR2-N735D; assay type: cell-based; settings: relative to wild-type / saturating glutamate
T1 construct: expressed in transfected cells; host or cells: HEK 293T
Procedure: (§1) Whole-cell patch clamp recordings from single isolated cells were performed 24–36 hr after transfection in a high-potassium extracellular solution containing (in mM): 120 KCl, 29 NaCl, 1 MgCl2, 2 CaCl2 and 10 HEPES, pH 7.4. Cells were voltage clamped to −60 mV using an Axopatch 200B amplifier (Axon Instruments) and membrane currents were recorded. Glass pipettes of resistance between 3 and 8 MΩ were filled with intracellular solution containing (in mM): 140 KCl, 10 HEPES, 3 Na2ATP, 0.2 Na2GTP, 5 EGTA and 3 MgCl2, pH 7.4. Data were acquired with a 2 kHz acquisition rate and filtered with the amplifier 4-pole Bessel filter at 1 kHz. Drugs were prepared in extracellular solution and applied using a gravity-driven perfusion system. Data were analyzed with Clampfit (Molecular Devices) and Prism (GraphPad). Data for all conditions came from at least two separate transfections.

SNAP-mGluR2-R57A = target: T2, SNAP-mGluR2-R57A (Rattus norvegicus, UniProt P31421, R57A); test: GIRK activation assay, whole cell patch clamp, SNAP-mGluR2-R57A; assay type: cell-based
T2 construct: expressed in transfected cells; host or cells: HEK 293T
T2 sequence (P31421 19-872 R57A): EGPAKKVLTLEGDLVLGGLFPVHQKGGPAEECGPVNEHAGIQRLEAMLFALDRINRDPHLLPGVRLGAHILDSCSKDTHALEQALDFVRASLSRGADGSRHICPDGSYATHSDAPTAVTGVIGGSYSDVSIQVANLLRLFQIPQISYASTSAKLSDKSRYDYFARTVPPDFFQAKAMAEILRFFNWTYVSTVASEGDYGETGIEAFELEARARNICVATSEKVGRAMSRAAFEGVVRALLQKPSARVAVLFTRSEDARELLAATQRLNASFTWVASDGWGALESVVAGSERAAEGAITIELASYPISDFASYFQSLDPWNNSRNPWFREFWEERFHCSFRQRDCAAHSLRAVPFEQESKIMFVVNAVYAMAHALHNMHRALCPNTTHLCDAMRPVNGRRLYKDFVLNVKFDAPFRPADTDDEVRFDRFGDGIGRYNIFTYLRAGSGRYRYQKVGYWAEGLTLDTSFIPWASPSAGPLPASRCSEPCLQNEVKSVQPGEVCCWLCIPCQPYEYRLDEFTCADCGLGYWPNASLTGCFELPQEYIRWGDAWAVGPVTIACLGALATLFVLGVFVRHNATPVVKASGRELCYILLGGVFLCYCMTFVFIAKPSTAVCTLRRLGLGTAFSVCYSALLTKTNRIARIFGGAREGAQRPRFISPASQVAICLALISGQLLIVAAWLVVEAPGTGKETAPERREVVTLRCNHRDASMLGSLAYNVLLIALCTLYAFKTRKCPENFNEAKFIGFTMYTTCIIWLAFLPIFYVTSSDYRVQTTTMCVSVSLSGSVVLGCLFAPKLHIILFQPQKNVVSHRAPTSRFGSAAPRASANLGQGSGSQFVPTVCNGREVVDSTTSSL
Procedure: (§2) Cells were cultured in DMEM with 5% FBS on poly-L-lysine-coated glass coverslips. DNA plasmids were transfected into cells using Lipofectamine 3000 (Thermo Fisher). […] For single-molecule pulldown (SiMPull) experiments, cells were transfected with 0.7 μg DNA of HA and SNAP-tagged receptor constructs, unless otherwise noted. For FRET experiments, cells were transfected with either SNAP-tagged constructs at 0.5–0.7 μg of DNA/well or SNAP and CLIP-tagged constructs at a ratio of 1:2 with 0.3 μg of SNAP DNA/well.
as §1

[1] = target: T3, isolated mGluR2 TMD (SNAP-mGluR2-TMD) (Rattus norvegicus, UniProt P31421); test: GIRK activation assay, whole cell patch clamp, isolated mGluR2 TMD; assay type: cell-based; settings: normalized to saturating LY48
T3 construct: mGluR2-TMD (rat) starts at Q558; expressed in transfected cells; host or cells: HEK 293T
T3 sequence (P31421 558-872 limits assumed): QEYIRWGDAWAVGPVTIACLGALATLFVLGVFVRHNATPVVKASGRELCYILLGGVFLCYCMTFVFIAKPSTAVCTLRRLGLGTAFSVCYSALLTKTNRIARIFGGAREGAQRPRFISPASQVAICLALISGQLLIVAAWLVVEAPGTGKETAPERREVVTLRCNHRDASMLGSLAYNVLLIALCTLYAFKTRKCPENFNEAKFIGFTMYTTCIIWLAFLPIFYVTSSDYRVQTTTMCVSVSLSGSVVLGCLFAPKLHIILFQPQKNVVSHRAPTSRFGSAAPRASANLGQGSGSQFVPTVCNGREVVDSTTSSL
Procedure: as §2, §1

SNAP-mGluR2 = target: T4, SNAP-mGluR2 (Rattus norvegicus, UniProt P31421); test: Single-molecule pulldown (SiMPull) photobleaching step counting, full-length SNAP-mGluR2; settings: 1 mM glutamate and 10 µM LY48
T4 construct: HEK 293T cells expressing full-length mGluR2; expressed in transfected cells; host or cells: HEK 293T
T4 sequence (P31421 19-872): as the sequence (P31421 19-872 R57A) above, with A39R counted along it
Procedure: To restrict our analysis to surface-targeted receptors, we expressed N-terminally SNAP-tagged receptor variants and labeled them with membrane-impermeable fluorophores.
To test this, we incubated SNAP-mGluR2-TMD expressing cells and lysates with PAMs or NAMs during the SiMPull experiment.
Briefly, to prevent non-specific sticking of proteins, flow chambers were prepared with mPEG-passivated glass slides and coverslips doped with ~1% biotinylated mPEG, as previously described. Prior to each experiment, chambers were incubated with 0.2 mg/mL NeutrAvidin (ThermoFisher) for 2 min followed by 10 nM of a biotinylated anti-HA antibody (abcam ab26228) for 20–30 min. After each conjugation step, the chambers were washed with T50 buffer (50 mM NaCl, 10 mM Tris, pH 7.5).
After labeling, cells were dissociated from coverslips by incubating with Ca^2+-free PBS for 20 min followed by gentle pipetting. […] Following 1 hr of lysis at 4°C, cells were centrifuged at 16,000 g for 20 min before the supernatant was collected and maintained on ice. The cell lysate was diluted in a 0.1% detergent dilution buffer to obtain sparse immobilization of labeled protein on the passivated slide. […]
Single molecules were imaged with a 100x objective on an inverted microscope (Olympus IX73) in total internal reflection fluorescence (TIRF) mode. […]

full-length mGluR2 = target: T5, full-length mGluR2 (Rattus norvegicus, UniProt P31421); test: Calcium imaging assay, HEK cells with full-length mGluR2, GCaMP6f and Gαiq chimera; assay type: cell-based
T5 construct: HEK 293T cells expressing full-length mGluR2; expressed in transfected cells; host or cells: HEK 293T
T5 sequence (P31421 19-872): as the sequence (P31421 19-872 R57A) above, with A39R counted along it
Procedure: as §2
Experiments were conducted with continuous gravity-driven perfusion on an inverted microscope (Olympus IX73) and imaged with a 20x objective. […] Regions of interest were selected in Olympus cellSens software and represent single cells or small cell clusters (2–3 cells). Data analysis was performed in Microsoft Excel, where intensities were normalized to the baseline prior to drug application. Dose–response curves were fit using Prism (Graphpad) and data comes from at least two independent experiments for each LY48 concentration.

T1 sequence (P31421 19-872 N735D): as the sequence (P31421 19-872 R57A) above, with A39R, N717D counted along it

GIRK activation of mGluR2-N735D (mGluR2-N735D): drastically reduced activation
EC50 (SNAP-mGluR2-R57A; SNAP-mGluR2-R57A, normalized to saturating glutamate, mean ± s.e.m., read-out: GIRK activation EC50): 290 ± 80 nM
EC50 (SNAP-mGluR2-R57A; mGluR2-R57A, read-out: GIRK activation EC50 (approximate)): ~300 nM
maximal PAM-induced GIRK activation relative to glutamate (SNAP-mGluR2-R57A; mGluR2-R57A, relative to glutamate): ~ 70%
EC50 [1]: 140 ± 10 nM
two-step bleaching events of SNAP-mGluR2 with glutamate plus LY48 (SNAP-mGluR2): ~ 60%
EC50 (full-length mGluR2): 1200 ± 200 nM
Compound: COc1ccccc1Oc1ccc(N(Cc2cccnc2)S(=O)(=O)CC(F)(F)F)cc1 [LY48]

From article PMC6588349 (eLife, 2019)
